Experimental findings from patent US20240344034A1, “Renal Progenitor Cells” (The University of Queensland, priority 2013, published 2024) are described below.

What all share (format): cell-based, human
In assay [1] the test system is hESC-derived IM cells. Description: Differentiation of IM to ureteric epithelium and metanephric mesenchyme/nephron progenitors (IF, PCR). The following applies: for production of mesenchyme (HOXD11, SIX2, SIX1, WT1, EYA1 expression): CHIR99021 at 1 μM through Stage 2 and 3 and RA antagonist added. As for the experimental part: (§1) HES3 (MIXL1^GFP/wt) cells were routinely cultured on irradiated MEF feeder cells in F12/DMEM (Life Technologies) supplemented with 20% KnockOut serum replacement (Life Technologies), 100 μM MEM NEAA (Life Technologies), 110 μM 2-mercaptoethanol (Life Technologies), 1×penicillin/streptomycin (Life Technologies), 1× Glutamax (Life Technologies) and 10 ng/mL bFGF (R&D systems). The day before starting differentiation, cells were plated at 12,000-15,000 cells/cm^2 on a Matrigel coated 96-well plate. After overnight culture, cells were exposed to 30 ng/mL BMP4 (R&D systems) and 10 ng/mL Activin A (R&D systems) or 8 μM CHIR99021 in a previously established serum free media APEL for 2-3 days, then 200 ng/mL FGF9 and 1 μg/mL Heparin in APEL media for 4 days to induce IM cells. Subsequently cells were exposed to 200 ng/mL FGF9, 50 ng/mL BMP7, 0.1 μM RA and 1 μg/mL Heparin for 4-11 days in case of BMP4/Activin A induction. In case of CHIR99021 induction, cells were exposed to 200 ng/mL FGF9 and 1 μg/mL Heparin for 6 days then cultured in APEL basal media for another 6 days. Media was changed every 2 days.
Cells were fixed with 4% Paraformaldehyde in PBS for 10 min at 4° C. followed by a wash with PBS. Then cells were blocked with 1% BSA, 0.2% milk, 0.3% Triton X/PBS for 1 hr at RT and incubated with primary antibodies overnight at 4° C.
Secondary antibodies were incubated for 1 hr at RT. The following antibodies and dilutions were used: rabbit anti-PAX2 (1:200, #71-6000, Zymed Laboratories Inc.), goat anti-OSR1 (1:75, #sc-67723, Santa Cruz Biotechnology), goat anti-LHX1 (1:75, #sc-19341, Santa Cruz Biotechnology), mouse anti-TBX6 (1:200, AF4744, R&D systems), goat anti-SOX17 (1:200, #AF1924, R&D systems), rabbit anti-SIX2 (1:200, #11562-1-AP, Proteintech), mouse anti-ECAD (1:200, #610181, BD Biosciences), rabbit anti-WT1 (1:100, #sc-192, Santa Cruz Biotechnology), mouse anti-HOXD11 (1:200, #SAB1403944, Sigma-Aldrich), goat anti-GATA3 (1:200, AF2605, R&D systems), rabbit anti-JAG1 (1:200, #ab7771, Abcam), rabbit anti-CDH6 (1:100, #HPA007047, Sigma Aldrich) and goat anti-SYNPO (1:200, #sc-21537, Santa Cruz Biotechnology). Secondary antibodies were: Alexa-488-conjugated goat anti-rabbit, Alexa-594-conjugated donkey anti-rabbit, Alexa-488-conjugated donkey anti-goat and Alexa-594-conjugated goat anti-mouse (1:250, Life Technologies). Images were taken using Nikon Ti—U microscope or Zeiss LSM 510 Meta UV confocal microscope. […]
(§2) Total RNA was extracted from cells using RNeasy micro kit (QIAGEN) and cDNA was synthesized from >100 ng RNA using Super Script III reverse transcriptase (Life Technologies). Quantitive RT-PCR (qRT-PCR) analyses were performed with Syber Green (Applied Biosystems) by ABI PRISM 7500 real-time PCR machine. […]

For assay [2], the system named is reporter hESC line, MIXL1GFP/wt. Kind of assay: Posterior primitive streak induction from MIXL1-GFP reporter hESC (FACS, qRT-PCR). As for the experimental part:
as §1, with “Media was changed every 2 days.” left out
as §2
A general note: Quantitative PCR measures a nucleic acid by following its amplification.

Assay [3] deals with hESC-induced posterior primitive streak. Kind of assay: Intermediate mesoderm (IM) induction from hESC-induced posterior primitive streak (IF, qRT-PCR). Here is the method: as §1
Cells were fixed with 4% Paraformaldehyde in PBS for 10 min at 4° C. followed by a wash with PBS. […]
as §2
To quantify the proportion of differentiated cells positive for PAX2^+, LHX1^+, SOX17^+, SIX2^+ or WT1^+, cells were immunofluorescently stained with each antibody together with the nuclear stain, DAPI. The ratio of differentiated cells to total cells was manually counted using Image J in 1 or 2 representative fields per experiment (total 3-5 representative fields from 3 independent experiments, 1-1.5×10^3 cells in total), using an Olympus BX-51 microscope, 10× objective.

On to `Cc1c[nH]c(-c2cnc(NCCNc3ccc(C#N)cn3)nc2-c2ccc(Cl)cc2Cl)n1` [CHIR99021], for which the “production of mesenchyme (HOXD11, SIX2, SIX1, WT1, EYA1 expression)” value in assay [1] is reported as “improved”. Also, the “Stage 1 concentration giving optimal ratio of epithelium to nephron progenitors” value in assay [1] (first 2 days in culture, cultured out to day 18, 6 μM better than 8 μM) is 6 µM. In addition, the “concentration optimal for posterior primitive streak” value in assay [2] (comparative expression of MIXL1, T, SOX17, 5, 7, 9 μM tested) is greater than 7 µM. Moreover, the “cells became GFP+ (MIXL1-GFP positive posterior primitive streak cells)” value in assay [2] (high BMP4/low Activin A (30/10 ng/mL) or high CHIR99021, 3 days culture, FACS) is recorded as “approximately 90%”.

Regarding `CCN(CC)CCCCNc1ncc2cc(-c3cc(OC)cc(OC)c3)c(NC(=O)NC(C)(C)C)nc2n1` [PD173074], in assay [3] (day 6, FGF 200 ng/ml day 2 to 6), the “PAX2 and LHX1 induction in response to FGF2 or FGF9” value is “dramatically inhibited”.

In the case of `Cc1ccc(C2=CCC(C)(C)c3ccc(C#Cc4ccc(C(=O)O)cc4)cc32)cc1` [AGN193109], in assay [1], the “production of mesenchyme (HOXD11, SIX2, SIX1, WT1, EYA1 expression)” value was “improved”.

B1: BMP7: bone morphogenic protein 7 (protein, UniProt P18075 293-431, looked up)
Bone morphogenetic protein 7: STGSKQRSQNRSKTPKNQEALRMANVAENSSSDQRQACKKHELYVSFRDLGWQDWIIAPEGYAAYYCEGECAFPLNSYMNATNHAIVQTLVHFINPETVPKPCCAPTQLNAISVLYFDDSSNVILKKYRNMVVRACGCH
Regarding B1, the effect on mesenchyme entry in assay [1] (BMP7 together with FGF9 in Stage 3) is recorded as “slightly improves the mesenchyme”.

B2: FGF8: FGF family member (protein, UniProt P55075 23-233, looked up)
Fibroblast growth factor 8: QEGPGRGPALGRELASLFRAGREPQGVSQQHVREQSLVTDQLSRRLIRTYQLYSRTSGKHVQVLANKRINAMAEDGDPFAKLIVETDTFGSRVRVRGAETGLYICMNKKGKLIAKSNGKGKDCVFTEIVLENNYTALQNAKYEGWYMAFTRKGRPRKGSKTRQHQREVHFMKRLPRGHHTTEQSLRFEFLNYPPFTRSLRGSQRTWAPEPR
Consider B2, for which the “coexpression of OSR1, PAX2 and LHX1 (IM induction)” value in assay [3] (200 ng/mL FGF for 4 days) is on record as “not”.

B3: NOG: BMP antagonist NOG (noggin) (protein, UniProt Q13253 28-232, looked up)
Noggin: QHYLHIRPAPSDNLPLVDLIEHPDPIFDPKEKDLNETLLRSLLGGHYDPGFMATSPPEDRPGGGGGAAGGAEDLAELDQLLRQRPSGAMPSEIKGLEFSEGLAQGKKQRLSKKLRRKLQMWLWSQTFCPVLYAWNDLGSRFWPRYVKVGSCFSKRSCSVPEGMVCKPSKSVHLTVLRWRCQRRGGQRCGWIPIQYPIISECKCSC
Consider B3, for which the “FOXF1 (LPM marker) expression” value in assay [3] (NOG together with FGF9 from day 2 to 6, qRT-PCR day 6) was “effectively suppressed”.
